The results in this text go back to PMC3375340 (Journal of Medicinal Chemistry, 2012).

In brackets after ≈: the same amount, converted by molar mass. Some results are limits rather than exact numbers.

Data set [1] relates to M. tuberculosis electron transport system. Put plainly: Oxygen consumption assay. The conditions noted are these: for electron transport system inhibition (conclusion): from oxygen consumption assay. The format is cell-based.
Data set [2] has as its system M. tuberculosis H37Rv. In words: MIC, Mycobacterium species panel. The format is cell-based.
The target of data set [3] is M. tuberculosis MenA (Mycobacterium tuberculosis, UniProt P9WIP3). In words: MenA enzyme inhibitory assay. The conditions noted are these: for IC50: MenA Inhibition IC50, Mtb MenA, dose-response of DMMK formation. The format is biochemical.
Data set [4] deals with M. bovis, M. intracellulare, and M. smegmatis. In kind it is cell-based, Mycobacterium species.
The test system of data set [5] is M. bovis BCG. In words: microbe, parasite or virus in culture. Particulars: Mycobacterium tuberculosis variant bovis BCG. In kind it is cell-based.
Data set [6] has as its system M. tuberculosis H37Rv. Put plainly: Microplate alamar blue assay. In kind it is cell-based. Particulars: Mycobacterium tuberculosis, read-out: MIC against Mtb (MABA). (Alamar Blue is a resazurin reagent that responds to reducing activity.)
Data set [7] is described as follows: in vitro. Particulars: monkey.
Data set [8] relates to M. intracellulare ATCC15984. In words: MIC, Mycobacterium species panel. The format is cell-based.

Usually IC50 stands for the concentration that inhibits the measured activity by half.

Chain of M. tuberculosis MenA (P9WIP3 whole entry): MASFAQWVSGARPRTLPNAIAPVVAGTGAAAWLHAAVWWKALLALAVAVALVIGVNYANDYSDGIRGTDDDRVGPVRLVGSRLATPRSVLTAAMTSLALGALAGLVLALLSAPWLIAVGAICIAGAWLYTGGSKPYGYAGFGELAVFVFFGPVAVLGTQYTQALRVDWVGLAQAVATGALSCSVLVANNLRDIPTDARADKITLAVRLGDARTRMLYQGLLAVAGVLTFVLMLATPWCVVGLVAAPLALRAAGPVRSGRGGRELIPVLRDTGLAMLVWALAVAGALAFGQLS

With `CCCCCC[C@@H](CN1CCC(COc2ccc(C(=O)c3ccc(Cl)cc3)c(Cl)c2)CC1)OC(N)=O` [(S)-17], in data set [1] (Mtb, 37 °C, 22h, above the MIC), the “concentration showing decolorization of methylene blue” value was 12.5 µg/mL.
With `CCCCCC[C@H](CN1CCC(COc2ccc(C(=O)c3ccc(Cl)cc3)c(Cl)c2)CC1)OC(N)=O` [(R)-17, (R)-1-(4-((3-chloro-4-(4-chlorobenzoyl)phenoxy)methyl)piperidin-1-yl)octan-2-yl carbamate], the “electron transport system inhibition (conclusion)” value in data set [1] is reported as “very weak (or are not) electron transport system inhibitors”.
The molecule `NNC(=O)c1ccncc1` [INH, isoniazid] came in with an MIC in data set [2] of 0.24 µg/mL (≈ 1.75 µM).
Regarding `CCCCCCC[C@H](O)c1cccc(CN2CCC(COc3ccc(C(=NOC)c4ccc(Cl)cc4)c(Cl)c3)CC2)c1` [(S)-20, (S)-(2-Chloro-4-((1-(3-(1-hydroxyoctyl)benzyl)piperidin-4-yl)methoxy)phenyl)(4-chlorophenyl) methanone O-methyl oxime], the IC50 in data set [3] was determined as 20 µM.
Still for that read-out and setting: for `CCCCCCC[C@H](O)c1cccc(CN2CCC(COc3cccc(C(=O)c4ccc(Cl)cc4)c3)CC2)c1` [(S)-3, (S)-(4-chlorophenyl)(3-((1-(3-(1-hydroxyoctyl)benzyl)piperidin-4-yl)methoxy)phenyl) methanone] the value was 20 µM.
Consider `CCCCCC[C@H](CN1CCC(COc2cccc(C(=O)c3ccc(Cl)cc3)c2)CC1)OC(N)=O` [(R)-12, (R)-1-(4-((3-(4-chlorobenzoyl)phenoxy)methyl)piperidin-1-yl)octan-2-yl carbamate], for which the “fold better MenA enzyme inhibitory activity compared to the alcohol (R)-11” value in data set [3] (Mtb MenA IC50 comparison) worked out at 6 fold. The “electron transport system inhibition (conclusion)” value in data set [1] was “very weak (or are not) electron transport system inhibitors”. The “killing concentration, other Mycobacterium species” value in data set [4] is given as 3.0~6.5 μg/mL.
Molecule `CCCCCCC[C@@H](O)c1cccc(CN2CCC(COc3ccc(C(=NOC)c4ccc(Cl)cc4)c(Cl)c3)CC2)c1` [(R)-20, (R)-(2-Chloro-4-((1-(3-(1-hydroxyoctyl)benzyl)piperidin-4-yl)methoxy)phenyl)(4-chlorophenyl) methanone O-methyl oxime] showed a half-inhibitory concentration (IC50) in data set [3] of 15 µM.
Turning to `CCCCCC[C@H](CN1CCC(COc2cccc(C(=NOC)c3ccc(Cl)cc3)c2)CC1)OC(N)=O` [(R)-13, (R)-1-(4-((3-((4-Chlorophenyl)(methoxyimino)methyl)phenoxy)methyl)piperidin-1-yl)octan-2-yl carbamate], the IC50 in data set [3] amounted to 1.2 µM. Besides, the MIC worked out at 2.95 µg/mL (≈ 5.56 µM) in data set [5], 2.31 µg/mL (≈ 4.36 µM) in data set [6] and 6.5 µg/mL (≈ 12.3 µM) in data set [8]. Further, the selectivity ratio in data set [7] is over 10. In data set [4], the “killing concentration, other Mycobacterium species” value is 3.0~6.5 μg/mL.
In turn, `CCCCCCC[C@@H](O)c1cccc(CN2CCC(COc3cccc(C(=NOC)c4ccc(Cl)cc4)c3)CC2)c1` [(R)-15, (R)-(4-chlorophenyl)(3-((1-(3-(1-hydroxyoctyl)benzyl)piperidin-4-yl)methoxy)phenyl)methanone O-methyl oxime] registered a concentration for half-maximal inhibition (IC50) in data set [3] of 15 µM.
